Experiment [1] deals with hippocampal brain slice. The experiment can be described thus: Zn2+ release into extracellular fluid of acute hippocampal brain slices, EnZin fluorescence. Type of experiment: cell-based, rat. Conditions: immediately after adding to hippocampal slice bath. As for the experimental part: Experiments were performed on transverse hippocampal splices taken from 5 to 6 week-old male rats. In all, 41 hippocampal slices and 10 additional hippocampi taken directly from intact animals (“freshly frozen” see below) were studied quantitatively. After halothane (3.5%) inhalation in the anesthetic box, the rats were perfused with 4° C. artificial cerebrospinal fluid (ACSF) (NaCl was substituted by 190 mM sucrose) intracardially for 1 minute (76-77).
After perfusion, the rats were decapitated and the hippocampi were dissected out and placed in cold (4° C.) artificial cerebrospinal fluid. Transverse slice (400 μm) were cut with a vibratome (Campden Vibraslice, model # 752) and placed on a nylon mesh in an incubation chamber. […] The slices were kept at 20° C. in oxygenated (95% O2, 5% CO2) artificial cerebrospinal fluid for 30 minute before stimulation. The gas mixture was also bubbled through the water bath in the chamber and vented over the chamber for >30 minute before the experiment started. The standard artificial cerebrospinal fluid comprised 130 mM NaCl, 3.5 mM KCl, 1.25 mM NaH2PO4, 2 mM MgSO4, 2 mM CaCl2, 20 mM NaHCO3, 2 mM ascorbic acid and 10 mM D-glucose.
For measuring zinc release with EnZin, (apoCA+ABDN), the slices were epi-illuminated with 420 nm light and imaged through both 530 nm and 700 nm band pass filters. […] The ABDN is fluorescent at 600 nm when free, but fluoresces at 560 nm when bound to the Zn+CA (“holo” CA). Thus, the CA is the zinc detector, and the ABDN is the ratiometric fluorescent reporter. A variety of CA with different zinc affinities for different zinc measurement ranges can be generated (78).
The ratio of the 520/700 nm images were then calculated (Optimus), giving a ratiometric image of zinc concentration. In this fluorescence system, the affinity of the EnZin is so high (Kd=[…]) that it can be treated as infinite. With a stoichiometric excess of EnZin, the percent occupancy of the EnZin by Zn^2+ can be used as the modulator of fluorescence intensity. […]

Experiment [2] has as its system hippocampal slice. The experiment can be described thus: Zn2+ release from hippocampal slice in oxygen-glucose deprivation (OGD) and reperfusion, Newport Green. Type of experiment: cell-based, rat. Conditions: slices pretreated, 1 mM. An excerpt: In the in vitro model, the ischemia was translated to the hippocampal slice using the established oxygen-glucose deprivation (OGD) paradigm. Zinc in the extracellular fluids of the slice was monitored using membrane impermeable Newport Green as a sensor for Zn^2+ in the extracellular fluid as described herein. The release results paralleled the results obtained in vivo from the rabbits. Zinc was released into the extracellular fluid at the onset of OGD, then even more release was observed during reperfusion (FIG. 8).

Experiment [3] deals with zinc-positive neurons. The experiment can be described thus: Pilocarpine-induced seizures, number of zinc-positive neurons. The class given is in vivo.
The test system of experiment [4] is zinc-positive neurons in hilus and hippocampal cortex (CA3). In words: Traumatic brain injury plus hypoperfusion, number of zinc-stained neurons. The class given is in vivo, rat. The note with it: for sparing in the number of zinc-injured (zinc-positive) neurons: trauma plus hypoperfusion. An excerpt:
Male Sprague-Dawley rats weighing 350-400 g were anesthetized with isoflurane in an anesthetic chamber, intubated, and mechanically ventilated with 1.5-2.0% isoflurane in O2:room air (70:30) using a volume ventilator (EDCO Scientific, Chapel Hill, N.C.). Polyethylene cannulae were placed in both femoral arteries and one femoral vein for arterial pressure monitoring and hemorrhage and for drug infusion, respectively. Rectal and temporalis muscle temperatures were monitored using telethermometers (Yellow Springs Instruments, Yellow Springs, Ohio). Rectal temperature was maintained using a thermostatically controlled water blanket (Gaymar, Orchard Park, N.Y.).
Rats were prepared for parasagittal fluid-percussion traumatic brain injury (TBI) and for laser Doppler flowometry as described below. Intracranial pressure (ICP) was monitored continuously using a Camino probe (V420, Camino Laboratories, San Diego, Calif.) placed in a lateral ventricle through a small craniotomy placed posterior and lateral to the fluid percussion injury site. Isoflurane was lowered to 1.5%; the rats were connected to the trauma device, and subjected to moderate or severe traumatic brain injury.
After traumatic brain injury (or sham-TBI) blood was withdrawn from a catheter in a femoral artery to reduce MAP to 60 mmHg. Mean arterial pressure was maintained at 60 mmHg for 45 minutes during which time cerebral blood flow and ICP were measured. […] Post-resuscitation measurements were then performed. An arterial blood sample was withdrawn with each measurement series to determine PaCO2, PaO2, pH and hemoglobin concentration or hematocrit.
Fluid-percussion traumatic brain injury is a clinically relevant model that has been used in many studies of traumatic brain injury in cats, rats, and pigs (79, 82). The trauma device consists of a Plexiglas cylinder 60 cm long and 4.5 cm in diameter. One end of the device is connected to a hollow metal cylinder housing a pressure transducer (Statham PA856-100) and the other end is closed by a Plexiglas piston mounted on O-rings.
The piston is struck by a 4.8-kg steel pendulum dropped from a variable height, which determines the intensity of injury. The pressure pulse is recorded on a storage oscilloscope triggered photoelectrically by the descent of the pendulum. Sham-injured rats were connected to the trauma device but were not injured.
The effects of a moderate (2.0 atm) or severe (3.0 atm) levels of injury were studied. Moderate injury (2.1 atm) is associated with 10% mortality, reductions in EEG amplitude for 10 to 15 min, brief (<5 min) suppression of reflexes (corneal, pinna, paw flexion to pinch, righting), and return of spontaneous locomotion within 10 min. […]

Experiment [5] concerns vesicular zinc in axonal boutons of the hippocampal formation. The note with it: for vesicular zinc staining of boutons (qualitative): TSQ staining, 2 hr after infusion, hippocampal formation.
Experimental: Adult Sprague-Dawley rats (male, 300-350 g) were anesthetized with halothane, and mounted in a stereotaxic instrument where a bone defect was opened after reflection of the scalp.
For measuring the normal concentration of vesicular zinc in the tissue after treatment with various nitric oxide generators, frozen tissue sections were cut in a closed-top cryostat at 30 μm (−14° C.). For whole brains, starting at 3.6 mm caudal to bregma, every 3rd section was saved until 5-10 sections were obtained. For tissue slices studied in vitro, every section was saved (typically 6-9 per brain slice). After cutting, the sections were thawed onto glass slides, dried, then stained with TSQ (80-82).
The sections were stained with TSQ, ((N-(6-methoxy-8-quinolyl)-para-1-toluenesulfonamide, Molecular Probes), as described previously (80) for fluorescence visualization of Zn^2+. Briefly, the frozen, unfixed sections were immersed in a solution of TSQ (4.5 μM) in 140 mM sodium barbital and 140 mM sodium acetate buffer (pH 10-10.5) for 60 seconds, rinsed for 60 seconds in normal saline (NaCl, 0.9%), then viewed and imaged in the microscope with no coverslip while still damp. A SPOT2 cooled CCD camera was used to capture the fluorescence images (10×n.a. 0.65) at 12 bit resolution for subsequent quantitation of zinc-TSQ fluorescence intensity. Control and treated tissues were always digitized in the same sitting to guard against sensitivity changes in the system.
Rats were anesthetized, a microsyringe and needle were lowered into the hippocampal formation or neocerebellar cortex by stereotaxis and then nitric oxide generators were infused into the tissue. After 120 minutes of survival, the rats were sacrificed and the brains were cut and stained to show the location and concentration of the weakly bound Zn^2+ that is normally sequestered in the presynaptic boutons, i.e., vesicular zinc. Zinc localization and quantification were determined by TSQ fluorescence staining.
The target of experiment [6] is Zn^2+-bound CA (bovine CA I). The note with it: cited from earlier work.

“Also recorded” adds a separate entry of the source.

The Kd is the constant that tells how readily two partners part at equilibrium.

Consider `CC(=O)N[C@H](C(=O)O)C(C)(C)SN=O` [SNAP, S-nitroso-N-acetyl-L-penicillamine], for which, in experiment [1], the “Zn^2+ fluorescence in the slice bath / extracellular fluid” value was “rapid (within seconds) increase; also recorded: raised”.

For `COC(=O)[C@@H](N)CCCNC(=N)N[N+](=O)[O-]` [L-NAME, N(6)-nitro-L-arginine methyl ester], in experiment [2], the “Zn^2+ release into extracellular fluid after OGD and reperfusion” value is on record as “almost completely blocked”. Moreover, the “number of zinc-positive neurons after excitotoxic insult (qualitative)” value in experiment [3] and in experiment [4] (blunt-trauma) was “dramatically reduces” each time. Also, the “number of zinc-stained cells (qualitative)” value in experiment [4] (TBI plus hypoperfusion, prior administration) was “substantial reduction; also recorded: greatly reduces”. The “sparing in the number of zinc-injured (zinc-positive) neurons” value in experiment [4] (hilus) and in experiment [4] (hippocampal cortex (CA3)) was 50% each time.

Turning to `NCCCNCCCCNCCCN` [Spermine], the “vesicular zinc staining of boutons (qualitative)” value in experiment [5] is listed as “unaffected”. Moreover, the “Zn^2+ fluorescence in the slice bath / extracellular fluid” value in experiment [1] is “no effect”.

In the case of `NS(=O)(=O)c1ccc(NCCO)c2nonc12` [ABDN], the Kd in experiment [6] is 45 µM.

In the case of `NCCCNCCCCN(CCCN)/[N+]([O-])=N/O` [Spermine NO, Spermine-NONOate], the “vesicular zinc staining of boutons (qualitative)” value in experiment [5] was “depletes zinc”. In addition, in experiment [5] (quantitative microfluorimetric analysis, hilus, in vivo infusion), the “vesicular zinc in the hilus reduced compared to control” value is “about 60%”. Further, in experiment [1], the “Zn^2+ fluorescence in the slice bath / extracellular fluid” value was “rapid (within seconds) increase”.

The values above are taken from patent publication US20090325858A1, “Reduction of Zinc-Induced Neurotoxic Injury By Blockade of Nitric Oxide Synthesis” (ANDRO DIAGNOSTICS, INC., priority 2003, published 2009).
